Several values for one entry are separate records, joined by “and”; a condition that tells them apart may be missing. Equal values may be shown once.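 Compound exposure: 48 hours, 5 concentrations, 96-well plates. GI50: concentration for 50% inhibition of growth. TGI denotes the concentration required for complete inhibition of growth.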
What was measured:
Experiment in all cases: DTP human tumour cell line panel, 48 h
EKVX NSCLC = system: EKVX NSCLC
RPMI-8226 leukemia = system: RPMI-8226 leukemia
786-0 renal = system: 786-0 renal
HOP-62 NSCLC = system: HOP-62 NSCLC
SK-MEL-5 melanoma = system: SK-MEL-5 melanoma
HS 578T breast = system: HS 578T breast
CAKI-1 renal = system: CAKI-1 renal
SNB-19 CNS = system: SNB-19 CNS
M14 melanoma = system: M14 melanoma
PC-3 prostate = system: PC-3 prostate

SMILES	GI50 (EKVX NSCLC) [µM]	TGI (EKVX NSCLC) [µM]	GI50 (RPMI-8226 leukemia)	TGI (RPMI-8226 leukemia) [µM]	GI50 (786-0 renal)	TGI (786-0 renal) [µM]	GI50 (HOP-62 NSCLC)	TGI (HOP-62 NSCLC)	GI50 (SK-MEL-5 melanoma) [µM]	TGI (SK-MEL-5 melanoma) [µM]	GI50 (HS 578T breast)	TGI (HS 578T breast)	GI50 (CAKI-1 renal) [µM]	TGI (CAKI-1 renal) [µM]	GI50 (SNB-19 CNS)	TGI (SNB-19 CNS)	GI50 (M14 melanoma)	TGI (M14 melanoma) [µM]	GI50 (PC-3 prostate)	TGI (PC-3 prostate)
COc1ccc(Oc2cc(NCCC(F)(F)F)c3ncc(-c4ccc(C(=O)NC5CC5)c(C)c4)n3n2)c(F)c1F	2.53	> 100	0.656 µM	> 100	1.05 µM	> 52.3	2.02 µM	37 µM	4.75	> 100	1 µM	50.6 µM	0.365	> 100	5.73 µM	> 72.4 µM	0.339 µM	> 46.1	2.16 µM	> 78.5 µM
Nc1ncnc2nn(C3OC(CO)C(O)C3O)nc12 (stereo not given)	–	> 100	–	26.5	–	> 100	–	46.5 µM	–	39.7	–	> 100 µM	–	> 100	–	99.1 µM	–	> 62.8	–	> 67.6 µM
CNCCCn1c2c(c3ccc(F)cc3c1=O)C(=O)c1cc(OC)cnc1-2	0.301	1.96	0.203 µM	0.912	0.195 µM	0.658	0.142 µM	0.42 µM	0.307	1.08	2.24 µM	16.2 µM	–	–	0.216 µM	1.78 µM	0.308 µM	1.63	0.37 µM	8.1 µM
C[C@]12CC[C@@H]3c4ccc(O)cc4CC[C@H]3[C@@H]1CC[C@@H]2NS(=O)(=O)c1ccc2ccccc2c1	–	–	2.93 µM	9.94	2.96 µM	8.9	5.87 µM	20.2 µM	1.78	3.36	2.21 µM	7.14 µM	3.16	10.4	4.17 µM	> 100 µM	3.2 µM	10.5	2.75 µM	17.3 µM
COc1ccc(C(=O)OC2C(OC3C(O)COC(O[C@H]4C[C@H]5[C@@H]6CC=C7C[C@@H](O)CC[C@]7(C)[C@H]6CC[C@]5(C)[C@H]4[C@H](C)C(=O)CCC(C)C)C3OC(C)=O)OCC(O)C2O)cc1 (stereo not given in full)	< 0.003	2.4	< 0.003 µM	< 0.003	< 0.003 µM	0.441	< 0.003 µM	0.592 µM	< 0.003	0.0204	< 0.003 µM	0.0215 µM	< 0.003	0.349	–	–	–	–	< 0.003 µM	0.311 µM
COc1ccc(C#CC2=C(c3cc(OC)c(OC)c(OC)c3)C(=O)OC2)cc1	13.7	41.8	1.21 µM	3.56	4.94 µM	> 50	–	–	2.07	11.9	13.1 µM	> 50 µM	1.18	2.99	5.98 µM	> 50 µM	> 50 µM	> 50	2.95 µM	> 50 µM
N#C/C(=C\c1cccc2cnccc12)N1N=NC2C=CC=CC21 (stereo not given)	2.63	> 100	–	–	3.33 µM	> 100	2.95 µM	46.1 µM	3.19	> 100	2.46 µM	9.16 µM	1.7	> 100	6.29 µM	> 100 µM	7.71 µM	> 100	2.76 µM	> 100 µM
O=C(COc1ccc(-c2nc3cc(Cl)c(Cl)cc3[nH]2)cc1)N=Nc1c(O)[nH]c2ccccc12	4.97	> 100	–	–	2.33 µM	8.5	–	> 40.8 µM	–	–	1.61 µM	5.68 µM	6.91	> 100	1.78 µM	6.62 µM	4.17 µM	> 100	–	–
COc1ccc(-c2nc(-c3nc4ccc(C(F)(F)F)cc4[nH]3)c3ccccn23)cc1	–	–	–	–	> 100 µM	> 100	38 µM	> 100 µM	47	> 100	> 100 µM	> 100 µM	> 100	> 100	> 100 µM	> 100 µM	83.1 µM	> 100	4.73 µM	> 100 µM
O=C1N[C@H]2[C@H](O)[C@H](O)[C@@H](O)[C@H](O)[C@@H]2c2cc3c(c(O)c21)OCO3	–	–	0.224 µM and 0.842 µM	–	0.324 µM and 0.0396 µM	–	0.246 µM and 0.0935 µM	0.93 µM and 0.532 µM and 0.182 µM	0.127	–	0.021 µM and 0.0403 µM	0.0941 µM and 0.0978 µM	0.682	–	0.172 µM and 0.125 µM	0.939 µM and 0.197 µM	0.229 µM and 0.0346 µM	–	0.0381 µM and 0.0661 µM	0.787 µM and 0.48 µM
COC(=O)/C(=C\c1c(-c2ccccc2)[nH]c2ccccc12)S(C)(=O)=O	8.92	> 100	6.15 µM	96.4	7.46 µM	23.9	10.7 µM	36.7 µM	–	–	3.46 µM	> 100 µM	1.83	82.6	8.68 µM	> 100 µM	3.34 µM	> 100	4.16 µM	> 100 µM
CSc1nc(N)c2c(n1)NC(c1ccccc1)C1CCc3ccccc3C1=N2 (stereo not given)	7	> 100	5.72 µM	> 100	> 100 µM	> 100	> 100 µM	> 100 µM	4.79	> 100	–	–	31.3	> 100	> 100 µM	> 100 µM	11.9 µM	> 100	2.56 µM	> 100 µM
COc1cc(NC(C)CCCN)c2ncccc2c1Sc1ccc(Cl)cc1 (stereo not given)	2.14	4.72	–	–	1.89 µM	3.57	1.75 µM	3.29 µM	1.72	3.09	1.67 µM	3.85 µM	3.13	12.3	1.8 µM	3.46 µM	1.77 µM	3.34	1.65 µM	3.09 µM
CC(=O)NC1=C(Sc2ccc(Cl)cc2)C(=O)c2ccccc2C1=O	–	18.9	–	3.65	–	4.16	–	–	–	4.8	–	61.6 µM	–	14.6	–	28.6 µM	–	–	–	11.7 µM
O=C(Nc1cccc(-n2cc(-c3ccncc3)c(-c3ccc(O)c(Cl)c3)n2)c1)c1ccc(Cl)c(Cl)c1	–	–	3.46 µM	> 100	5.49 µM	94.3	20.3 µM	> 100 µM	3.9	18.7	2.82 µM	> 100 µM	3.38	> 100	29.7 µM	> 100 µM	5.26 µM	54.6	5.16 µM	> 100 µM
